Measured values reported in ChEMBL document CHEMBL4765244, “Synthesis, bioconversion, pharmacokinetic and pharmacodynamic evaluation of N-isopropyl-oxy-carbonyloxymethyl prodrugs of CZh-226, a potent and selective PAK4 inhibitor” (Eur J Med Chem, 2020).

Columns and labels:
[1] = Chemical stability of the compound in pH 7.4 PBS buffer assessed as compound remaining measured after 2 hrs by HPLC analysis; assay type: physicochemical; details: read-out: Stabilty
[2] = Chemical stability of the compound in pH 1.2 simulated gastric fluid buffer assessed as compound remaining measured after 2 hrs by HPLC analysis; assay type: physicochemical
[3] = Chemical stability of the compound in pH 6.8 simulated intestinal fluid assessed as compound remaining measured after 2 hrs by HPLC analysis; assay type: physicochemical
[4] = Stability of the compound in human plasma assessed as compound remaining measured within 120 mins at 37 degC by HPLC analysis; assay type: ADME, cell-free; details: read-out: Stabilty
[5] = Prodrug conversion in human plasma assessed as release of active metabolite (R)-(6-chloro-4-(5-cyclopropyl-1H-pyrazol-3-ylamino)quinazolin-2-yl)(3-methylpiperazin-1-yl)methanone hydrochloride measured within 120 mins at 37 degC by HPLC analysis; assay type: ADME, cell-free; details: 2 h
[6] = Stability of the compound in rat liver S9 fraction assessed as compound remaining measured after 60 mins at 37 degC by LC-MS/MS analysis; assay type: ADME, subcellular; details: read-out: Stabilty
[7] = AUC in Wistar rat assessed as (R)-(6-chloro-4-(5-cyclopropyl-1H-pyrazol-3-ylamino)quinazolin-2-yl)(3-methylpiperazin-1-yl)methanone hydrochloride at 14.18 mg/kg, po measured upto 24 hrs by LC/MS/MS analysis; assay type: ADME, organism-based; design: route oral, dose 14.18 mg/kg, time <=24; details: in vivo
[8] = AUC (0 to infinity) in Wistar rat assessed as (R)-(6-chloro-4-(5-cyclopropyl-1H-pyrazol-3-ylamino)quinazolin-2-yl)(3-methylpiperazin-1-yl)methanone hydrochloride at 14.18 mg/kg, po measured upto 24 hrs by LC/MS/MS analysis; assay type: ADME, organism-based; design: route oral, dose 14.18 mg/kg, time <=24; details: in vivo
[9] = Half life in Wistar rat assessed as (R)-(6-chloro-4-(5-cyclopropyl-1H-pyrazol-3-ylamino)quinazolin-2-yl)(3-methylpiperazin-1-yl)methanone hydrochloride at 14.18 mg/kg, po measured upto 24 hrs by LC/MS/MS analysis; assay type: ADME, organism-based; details: in vivo
[10] = Tmax in Wistar rat assessed as (R)-(6-chloro-4-(5-cyclopropyl-1H-pyrazol-3-ylamino)quinazolin-2-yl)(3-methylpiperazin-1-yl)methanone hydrochloride at 14.18 mg/kg, po measured upto 24 hrs by LC/MS/MS analysis; assay type: ADME, organism-based; details: in vivo
[11] = Cmax in Wistar rat assessed as (R)-(6-chloro-4-(5-cyclopropyl-1H-pyrazol-3-ylamino)quinazolin-2-yl)(3-methylpiperazin-1-yl)methanone hydrochloride at 14.18 mg/kg, po measured upto 24 hrs by LC/MS/MS analysis; assay type: ADME, organism-based; design: route oral, dose 14.18 mg/kg, time <=24; details: in vivo
[12] = AUC (0 to t) in Wistar rat at 10 mg/kg, po measured upto 24 hrs by LC/MS/MS; assay type: ADME, organism-based; design: route oral, dose 10 mg/kg, time <=24; details: in vivo
[13] = AUC (0 to infinity) in Wistar rat at 10 mg/kg, po measured upto 24 hrs by LC/MS/MS analysis; assay type: ADME, organism-based; design: route oral, dose 10 mg/kg, time <=24; details: in vivo
[14] = Half life in Wistar rat at 10 mg/kg, po measured upto 24 hrs by LC/MS/MS analysis; assay type: ADME, organism-based; details: in vivo
[15] = Tmax in Wistar rat at 10 mg/kg, po measured upto 24 hrs by LC/MS/MS analysis; assay type: ADME, organism-based; details: in vivo
[16] = Cmax in Wistar rat at 10 mg/kg, po measured upto 24 hrs by LC/MS/MS analysis; assay type: ADME, organism-based; design: route oral, dose 10 mg/kg, time <=24; details: in vivo
[17] = Oral bioavailability in Wistar rat assessed as (R)-(6-chloro-4-(5-cyclopropyl-1H-pyrazol-3-ylamino)quinazolin-2-yl)(3-methylpiperazin-1-yl)methanone hydrochloride at 10 mg/kg measured upto 24 hrs by LC/MS/MS analysis; assay type: ADME, organism-based; details: in vivo
[18] = Initial plasma concentration in Wistar rat at 2 mg/kg, iv measured upto 24 hrs by LC/MS/MS analysis; assay type: ADME, organism-based; details: in vivo
[19] = Clearance in Wistar rat at 2 mg/kg, iv measured upto 24 hrs by LC/MS/MS analysis; assay type: ADME, organism-based; details: in vivo
[20] = Volume of distribution in Wistar rat at 2 mg/kg, iv measured upto 24 hrs by LC/MS/MS analysis; assay type: ADME, organism-based; details: in vivo
[21] = Half life in Wistar rat at 2 mg/kg, iv measured upto 24 hrs by LC/MS/MS analysis; assay type: ADME, organism-based; details: in vivo
[22] = AUC (0 to infinity) in Wistar rat at 2 mg/kg, iv measured upto 24 hrs by LC/MS/MS analysis; assay type: ADME, organism-based; design: route intravenous, dose 2 mg/kg, time <=24; details: in vivo
[23] = AUC in Wistar rat at 2 mg/kg, iv measured upto 24 hrs by LC/MS/MS analysis; assay type: ADME, organism-based; design: route intravenous, dose 2 mg/kg, time <=24; details: in vivo
[24] = AUC in Wistar rat assessed as (R)-(6-chloro-4-(5-cyclopropyl-1H-pyrazol-3-ylamino)quinazolin-2-yl)(3-methylpiperazin-1-yl)methanone hydrochloride at 13.84 mg/kg, po measured upto 24 hrs by LC/MS/MS analysis; assay type: ADME, organism-based; design: route oral, dose 13.84 mg/kg, time <=24; details: in vivo
[25] = AUC (0 to infinity) in Wistar rat assessed as (R)-(6-chloro-4-(5-cyclopropyl-1H-pyrazol-3-ylamino)quinazolin-2-yl)(3-methylpiperazin-1-yl)methanone hydrochloride at 13.84 mg/kg, po measured upto 24 hrs by LC/MS/MS analysis; assay type: ADME, organism-based; design: route oral, dose 13.84 mg/kg, time <=24; details: in vivo
[26] = Half life in Wistar rat assessed as (R)-(6-chloro-4-(5-cyclopropyl-1H-pyrazol-3-ylamino)quinazolin-2-yl)(3-methylpiperazin-1-yl)methanone hydrochloride at 13.84 mg/kg, po measured upto 24 hrs by LC/MS/MS analysis; assay type: ADME, organism-based; details: in vivo
[27] = Tmax in Wistar rat assessed as (R)-(6-chloro-4-(5-cyclopropyl-1H-pyrazol-3-ylamino)quinazolin-2-yl)(3-methylpiperazin-1-yl)methanone hydrochloride at 13.84 mg/kg, po measured upto 24 hrs by LC/MS/MS analysis; assay type: ADME, organism-based; details: in vivo
[28] = Cmax in Wistar rat assessed as (R)-(6-chloro-4-(5-cyclopropyl-1H-pyrazol-3-ylamino)quinazolin-2-yl)(3-methylpiperazin-1-yl)methanone hydrochloride at 13.84 mg/kg, po measured upto 24 hrs by LC/MS/MS analysis; assay type: ADME, organism-based; design: route oral, dose 13.84 mg/kg, time <=24; details: in vivo
[29] = AUC in Wistar rat assessed as (R)-(6-chloro-4-(5-cyclopropyl-1H-pyrazol-3-ylamino)quinazolin-2-yl)(3-methylpiperazin-1-yl)methanone hydrochloride at 12.43 mg/kg, po measured upto 24 hrs by LC/MS/MS analysis; assay type: ADME, organism-based; design: route oral, dose 12.43 mg/kg, time <=24; details: in vivo
[30] = AUC (0 to infinity) in Wistar rat assessed as (R)-(6-chloro-4-(5-cyclopropyl-1H-pyrazol-3-ylamino)quinazolin-2-yl)(3-methylpiperazin-1-yl)methanone hydrochloride at 12.43 mg/kg, po measured upto 24 hrs by LC/MS/MS analysis; assay type: ADME, organism-based; design: route oral, dose 12.43 mg/kg, time <=24; details: in vivo
[31] = Half life in Wistar rat assessed as (R)-(6-chloro-4-(5-cyclopropyl-1H-pyrazol-3-ylamino)quinazolin-2-yl)(3-methylpiperazin-1-yl)methanone hydrochloride at 12.43 mg/kg, po measured upto 24 hrs by LC/MS/MS analysis; assay type: ADME, organism-based; details: in vivo
[32] = Tmax in Wistar rat assessed as (R)-(6-chloro-4-(5-cyclopropyl-1H-pyrazol-3-ylamino)quinazolin-2-yl)(3-methylpiperazin-1-yl)methanone hydrochloride at 12.43 mg/kg, po measured upto 24 hrs by LC/MS/MS analysis; assay type: ADME, organism-based; details: in vivo
[33] = Cmax in Wistar rat assessed as (R)-(6-chloro-4-(5-cyclopropyl-1H-pyrazol-3-ylamino)quinazolin-2-yl)(3-methylpiperazin-1-yl)methanone hydrochloride at 12.43 mg/kg, po measured upto 24 hrs by LC/MS/MS analysis; assay type: ADME, organism-based; design: route oral, dose 12.43 mg/kg, time <=24; details: in vivo

Compound	remaining at 2 h [1]	Stability [2]	Stability [3]	remaining at 2 h [4]	Drug metabolism [5]	remaining at 1 h [6]	other results
CCCCCOC(=O)N1CCN(C(=O)c2nc(Nc3cc(C4CC4)[nH]n3)c3cc(Cl)ccc3n2)C[C@H]1C	99.8%	88.4%	90.7%	74.4%	21.4%	63.9%	
C[C@@H]1CN(C(=O)c2nc(Nc3cc(C4CC4)[nH]n3)c3cc(Cl)ccc3n2)CCN1C(=O)OC(C)(C)C	99.1%	37.1%	90.2%	73.7%	20.7%	71.3%	
CC(OC(=O)N1CCN(C(=O)c2nc(Nc3cc(C4CC4)[nH]n3)c3cc(Cl)ccc3n2)C[C@H]1C)OC(=O)C(C)(C)C (stereo not given in full)	90.5%	92.2%	88.7%	49.4%	46.3%	66.3%	AUC [7]: 35.1 ng·h/mL; AUC [8]: 44.2 ng·h/mL; t1/2 [9]: 8.378 h; Tmax [10]: 8 h; Cmax [11]: 3.9 ng/mL
C[C@@H]1CN(C(=O)c2nc(Nc3cc(C4CC4)[nH]n3)c3cc(Cl)ccc3n2)CCN1.Cl				97.4%		53.9%	AUC(0-t) at 24 h [12]: 106 ng·h/mL; AUC(0-inf) [13]: 108 ng·h/mL; half-life [14]: 234 min; Tmax [15]: 4.98 min; Cmax [16]: 14.9 ng/mL; F [17]: 1.92%; C0 [18]: 4.52 µg/mL; clearance [19]: 29.7 mL/min/kg; Vd [20]: 12.4 L/kg; half-life [21]: 288 min; AUC(0-inf) [22]: 1120 ng·h/mL; AUC at 24 h [23]: 1110 ng·h/mL
CCOC(=O)N1CCN(C(=O)c2nc(Nc3cc(C4CC4)[nH]n3)c3cc(Cl)ccc3n2)C[C@H]1C	97.7%	89.5%	92.9%	85.3%	14.8%	48.5%	
C[C@@H]1CN(C(=O)c2nc(Nc3cc(C4CC4)[nH]n3)c3cc(Cl)ccc3n2)CCN1C(=O)OCOC(=O)C(C)(C)C	97.7%	83.9%	93%	0%	94%	47%	AUC [24]: 28.8 ng·h/mL; AUC [25]: 67.6 ng·h/mL; t1/2 [26]: 30.204 h; Tmax [27]: 4.98 min; Cmax [28]: 2.8 ng/mL
CC(OC(=O)C(C)C)OC(=O)N1CCN(C(=O)c2nc(Nc3cc(C4CC4)[nH]n3)c3cc(Cl)ccc3n2)C[C@H]1C (stereo not given in full)	96.6%	62.5%	88.6%	17.4%	78.8%	11%	AUC [24]: 50 ng·h/mL; AUC [25]: 59.6 ng·h/mL; t1/2 [26]: 10.35 h; Tmax [27]: 4.98 min; Cmax [28]: 28.3 ng/mL
C[C@@H]1CN(C(=O)c2nc(Nc3cc(C4CC4)[nH]n3)c3cc(Cl)ccc3n2)CCN1C(=O)OCC(Cl)(Cl)Cl	98.7%	88.5%	88.2%	79%	16.3%	78.9%	
C[C@@H]1CN(C(=O)c2nc(Nc3cc(C4CC4)[nH]n3)c3cc(Cl)ccc3n2)CCN1C(=O)OCc1ccccc1	97.7%	84.7%	93.6%	86.2%	13.5%	45.6%	
CC(C)OC(=O)N1CCN(C(=O)c2nc(Nc3cc(C4CC4)[nH]n3)c3cc(Cl)ccc3n2)C[C@H]1C	99%	70.2%	94.4%	78.5%	18.7%	78.6%	
COC(=O)N1CCN(C(=O)c2nc(Nc3cc(C4CC4)[nH]n3)c3cc(Cl)ccc3n2)C[C@H]1C	100%	95.2%	91.5%	84.6%	13.4%	34.2%	
CC(C)COC(=O)N1CCN(C(=O)c2nc(Nc3cc(C4CC4)[nH]n3)c3cc(Cl)ccc3n2)C[C@H]1C	99%	70.2%	88.8%	73.7%	25.7%	61.1%	AUC [29]: 63.5 ng·h/mL; AUC [30]: 111.2 ng·h/mL; t1/2 [31]: 16.723 h; Tmax [32]: 1.5 h; Cmax [33]: 7.4 ng/mL
